{"source": "ChEMBL document CHEMBL5252561", "about": "“Evaluation of darunavir-derived HIV-1 protease inhibitors incorporating P2' amide-derivatives: Synthesis, biological evaluation and structural studies” (Bioorg Med Chem Lett, 2023)", "key": {"[1]": {"test_system": "Human immunodeficiency virus", "experiment": "Antiviral activity against HIV LAI infected in human MT-2 cells assessed as inhibition of viral growth", "format": "functional, organism-based", "settings": "Human immunodeficiency virus 1, LAI, MT2"}, "[2]": {"target": "Human immunodeficiency virus type 1 protease (Human immunodeficiency virus 1, UniProt Q72874)", "experiment": "Inhibition of HIV-1 protease using Abz-NF-6 as substrate assessed as inhibition constant measured every 2 mins for 20 mins by fluorescence based […] analysis"}, "[3]": {"test_system": "Human immunodeficiency virus", "experiment": "Potency index, ratio of test compound IC50 to darunavir IC50 for antiviral activity against HIV LAI infected in human MT-2 cells assessed as inhibition of viral growth", "format": "functional, MT2"}}}
{"smiles": "CC(C)CN(C[C@@H](O)[C@H](Cc1ccccc1)NC(=O)O[C@H]1CO[C@H]2OCC[C@H]21)S(=O)(=O)c1ccc(NC(=O)CN[C@H](C)c2ccccc2)cc1", "values": [{"measurement": "IC50", "setting": "[1]", "value": 39, "unit": "nM"}, {"measurement": "Ki", "setting": "[2]", "value": 0.0053, "unit": "nM"}]}
{"smiles": "CC(C)CN(C[C@@H](O)[C@H](Cc1ccccc1)NC(=O)O[C@H]1CO[C@H]2OCC[C@H]21)S(=O)(=O)c1ccc(C(N)=O)cc1", "values": [{"measurement": "IC50", "setting": "[1]", "value": 93, "unit": "nM"}]}
{"smiles": "CC(C)CN(C[C@@H](O)[C@H](Cc1ccccc1)NC(=O)O[C@H]1CO[C@H]2OCC[C@H]21)S(=O)(=O)c1ccc(NC(=O)[C@H](NC(=O)OC(C)(C)C)C(C)C)cc1", "values": [{"measurement": "IC50", "setting": "[1]", "value": 430, "unit": "nM"}, {"measurement": "Ki", "setting": "[2]", "value": 337, "unit": "nM"}]}
{"smiles": "CC(C)CN(C[C@@H](O)[C@H](Cc1ccccc1)NC(=O)O[C@H]1CO[C@H]2OCC[C@H]21)S(=O)(=O)c1ccc(NC(=O)[C@@H](N)C(C)C)cc1", "values": [{"measurement": "IC50", "setting": "[1]", "value": 25, "unit": "nM"}, {"measurement": "Ki", "setting": "[2]", "value": 0.445, "unit": "nM"}]}
{"smiles": "CC(C)CN(C[C@@H](O)[C@H](Cc1ccccc1)NC(=O)O[C@H]1CO[C@H]2OCC[C@H]21)S(=O)(=O)c1ccc(NC(=O)CNC(C)C)cc1", "values": [{"measurement": "IC50", "setting": "[1]", "value": 31, "unit": "nM"}, {"measurement": "Ki", "setting": "[2]", "value": 0.388, "unit": "nM"}]}
{"smiles": "CC(C)CN(C[C@@H](O)[C@H](Cc1ccccc1)NC(=O)O[C@H]1CO[C@H]2OCC[C@H]21)S(=O)(=O)c1ccc(NC(=O)[C@@H](NC(=O)OC(C)(C)C)C(C)C)cc1", "values": [{"measurement": "IC50", "setting": "[1]", "value": 540, "unit": "nM"}, {"measurement": "Ki", "setting": "[2]", "value": 178, "unit": "nM"}]}
{"smiles": "CCNCC(=O)Nc1ccc(S(=O)(=O)N(CC(C)C)C[C@@H](O)[C@H](Cc2ccccc2)NC(=O)O[C@H]2CO[C@H]3OCC[C@H]32)cc1", "values": [{"measurement": "IC50", "setting": "[1]", "value": 280, "unit": "nM"}, {"measurement": "Ki", "setting": "[2]", "value": 0.0091, "unit": "nM"}]}
{"smiles": "CC(C)CN(C[C@@H](O)[C@H](Cc1ccccc1)NC(=O)O[C@H]1CO[C@H]2OCC[C@H]21)S(=O)(=O)c1ccc(N)cc1", "values": [{"measurement": "IC50", "setting": "[1]", "value": 1.6, "unit": "nM"}]}
{"smiles": "CC(C)CN(C[C@@H](O)[C@H](Cc1ccccc1)NC(=O)O[C@H]1CO[C@H]2OCC[C@H]21)S(=O)(=O)c1ccc(C(=O)O)cc1", "values": [{"measurement": "IC50", "setting": "[1]", "value": "> 1000", "unit": "nM"}]}
{"smiles": "CC(C)CN(C[C@@H](O)[C@H](Cc1ccccc1)NC(=O)O[C@H]1CO[C@H]2OCC[C@H]21)S(=O)(=O)c1ccc(NC(=O)CCl)cc1", "values": [{"measurement": "IC50", "setting": "[1]", "value": 32, "unit": "nM"}, {"measurement": "Ki", "setting": "[2]", "value": 0.0044, "unit": "nM"}]}
{"smiles": "CC(=O)Nc1ccc(S(=O)(=O)N(CC(C)C)C[C@@H](O)[C@H](Cc2ccccc2)NC(=O)O[C@H]2CO[C@H]3OCC[C@H]32)cc1", "values": [{"measurement": "IC50", "setting": "[1]", "value": 29, "unit": "nM"}, {"measurement": "Ratio IC50", "setting": "[3]", "value": 10}, {"measurement": "Ki", "setting": "[2]", "value": 0.0006, "unit": "nM"}]}
{"smiles": "CCN(CC)CC(=O)Nc1ccc(S(=O)(=O)N(CC(C)C)C[C@@H](O)[C@H](Cc2ccccc2)NC(=O)O[C@H]2CO[C@H]3OCC[C@H]32)cc1", "values": [{"measurement": "IC50", "setting": "[1]", "value": "> 1000", "unit": "nM"}, {"measurement": "Ki", "setting": "[2]", "value": 0.302, "unit": "nM"}]}
{"smiles": "CC(C)CN(C[C@@H](O)[C@H](Cc1ccccc1)NC(=O)O[C@H]1CO[C@H]2OCC[C@H]21)S(=O)(=O)c1ccc(NC(=O)CNC(=O)OC(C)(C)C)cc1", "values": [{"measurement": "Ki", "setting": "[2]", "value": 310, "unit": "nM"}]}
{"smiles": "CC(C)CN(C[C@@H](O)[C@H](Cc1ccccc1)NC(=O)O[C@H]1CO[C@H]2OCC[C@H]21)S(=O)(=O)c1ccc(NC(=O)CN(C)C)cc1", "values": [{"measurement": "IC50", "setting": "[1]", "value": "> 1000", "unit": "nM"}, {"measurement": "Ki", "setting": "[2]", "value": 0.0015, "unit": "nM"}]}
{"smiles": "CC(C)CN(C[C@@H](O)[C@H](Cc1ccccc1)NC(=O)O[C@H]1CO[C@H]2OCC[C@H]21)S(=O)(=O)c1ccc(NC(=O)CN)cc1", "values": [{"measurement": "Ki", "setting": "[2]", "value": 0.0921, "unit": "nM"}]}
